The NIST ThermoML archive (doi:10.1021/je400968v)
± gives the expanded uncertainty stated by the source.

Assays:
[1] = mn = molality of the nth substance listed, in mol/kg; conditions: 101 kPa, Liquid; for viscosity: Capillary tube (Ostwald / Ubbelohde) method; for mass density: Vibrating tube method
[2] = 101 kPa, Liquid; for viscosity: Capillary tube (Ostwald / Ubbelohde) method; for mass density: Vibrating tube method

Cc1c(N)cccc1N [2,6-diaminotoluene] + O
[1]
Conditions	mass density, 293.15 K [kg/m3]	mass density, 303.15 K [kg/m3]	mass density, 313.15 K [kg/m3]	mass density, 323.15 K [kg/m3]	mass density, 333.15 K [kg/m3]	viscosity, 293.15 K [mPa·s]	viscosity, 303.15 K [mPa·s]	viscosity, 313.15 K [mPa·s]	viscosity, 323.15 K [mPa·s]	viscosity, 333.15 K [mPa·s]
m1 = 0.0501	998.9 ± 0.23	996.32 ± 0.23	992.86 ± 0.23	988.65 ± 0.23	983.81 ± 0.23	1.032 ± 0.008	0.813 ± 0.007	0.665 ± 0.006	0.557 ± 0.005	0.4741 ± 0.0042
m1 = 0.1002	999.59 ± 0.23	996.97 ± 0.23	993.49 ± 0.23	989.24 ± 0.23	984.38 ± 0.23	1.053 ± 0.009	0.832 ± 0.007	0.677 ± 0.006	0.563 ± 0.005	0.479 ± 0.004
m1 = 0.1502	1000.27 ± 0.23	997.61 ± 0.23	994.1 ± 0.23	989.82 ± 0.23	984.89 ± 0.23	1.066 ± 0.009	0.838 ± 0.007	0.681 ± 0.006	0.568 ± 0.005	0.483 ± 0.004
m1 = 0.2	1000.92 ± 0.23	998.24 ± 0.23	994.69 ± 0.23	990.38 ± 0.23	985.37 ± 0.23	1.081 ± 0.009	0.85 ± 0.007	0.69 ± 0.006	0.573 ± 0.005	0.487 ± 0.004
m1 = 0.2497	1001.57 ± 0.23	998.86 ± 0.23	995.27 ± 0.23	990.93 ± 0.23	985.79 ± 0.23	1.09 ± 0.009	0.854 ± 0.007	0.694 ± 0.006	0.575 ± 0.005	0.488 ± 0.004
m1 = 0.2993	1002.21 ± 0.23	999.47 ± 0.23	995.84 ± 0.23	991.46 ± 0.23	986.15 ± 0.23	1.112 ± 0.009	0.87 ± 0.007	0.702 ± 0.006	0.585 ± 0.005	0.495 ± 0.004

CCCCO [butan-1-ol] + Cc1ccc(N)cc1N
[1], m2 = 0
Conditions	mass density [kg/m3]	viscosity [mPa·s]
293.15 K	809.69 ± 0.17	2.908 ± 0.019
303.15 K	802.04 ± 0.17	2.225 ± 0.015
313.15 K	794.27 ± 0.17	1.723 ± 0.012
323.15 K	786.32 ± 0.17	1.351 ± 0.009
333.15 K	778.16 ± 0.17	1.071 ± 0.008

CCCO [propan-1-ol] + Cc1ccc(N)cc1N
[1], m2 = 0
Conditions	mass density [kg/m3]	viscosity [mPa·s]
293.15 K	803.86 ± 0.17	2.171 ± 0.014
303.15 K	795.54 ± 0.17	1.696 ± 0.012
313.15 K	787.37 ± 0.17	1.338 ± 0.009
323.15 K	779.01 ± 0.18	1.067 ± 0.007
333.15 K	770.42 ± 0.18	0.859 ± 0.006

CCO [ethanol] + Cc1c(N)cccc1N
[1], m2 = 0
Conditions	mass density [kg/m3]	viscosity [mPa·s]
293.15 K	789.56 ± 0.16	1.179 ± 0.008
303.15 K	780.98 ± 0.16	0.972 ± 0.006
313.15 K	772.22 ± 0.16	0.806 ± 0.006
323.15 K	763.29 ± 0.17	0.672 ± 0.005
333.15 K	754.18 ± 0.17	0.564 ± 0.004

Cc1c(N)cccc1N [2,6-diaminotoluene] + CCCCO
[1]
Conditions	mass density, 293.15 K [kg/m3]	mass density, 303.15 K [kg/m3]	mass density, 313.15 K [kg/m3]	mass density, 323.15 K [kg/m3]	mass density, 333.15 K [kg/m3]	viscosity, 293.15 K [mPa·s]	viscosity, 303.15 K [mPa·s]	viscosity, 313.15 K [mPa·s]	viscosity, 323.15 K [mPa·s]	viscosity, 333.15 K [mPa·s]
m1 = 0.05	811.28 ± 0.17	803.61 ± 0.17	795.81 ± 0.17	787.85 ± 0.17	779.68 ± 0.17	2.922 ± 0.019	2.233 ± 0.015	1.728 ± 0.012	1.356 ± 0.009	1.075 ± 0.008
m1 = 0.0995	812.81 ± 0.17	805.13 ± 0.17	797.31 ± 0.17	789.34 ± 0.17	781.16 ± 0.17	2.941 ± 0.019	2.246 ± 0.015	1.735 ± 0.012	1.361 ± 0.009	1.078 ± 0.008
m1 = 0.1499	814.34 ± 0.17	806.66 ± 0.17	798.81 ± 0.17	790.84 ± 0.17	782.65 ± 0.17	2.96 ± 0.019	2.259 ± 0.015	1.746 ± 0.012	1.368 ± 0.009	1.085 ± 0.008
m1 = 0.1994	815.82 ± 0.17	808.13 ± 0.17	800.27 ± 0.17	792.28 ± 0.17	784.08 ± 0.17	2.978 ± 0.02	2.268 ± 0.015	1.755 ± 0.012	1.374 ± 0.009	1.087 ± 0.008
m1 = 0.2495	817.27 ± 0.17	809.58 ± 0.17	801.7 ± 0.17	793.7 ± 0.17	785.5 ± 0.17	3.001 ± 0.02	2.291 ± 0.016	1.764 ± 0.012	1.379 ± 0.01	1.093 ± 0.008

CCCCO [butan-1-ol] + Cc1c(N)cccc1N
[1], m2 = 0
Conditions	mass density [kg/m3]	viscosity [mPa·s]
293.15 K	809.69 ± 0.17	2.908 ± 0.019
303.15 K	802.04 ± 0.17	2.225 ± 0.015
313.15 K	794.27 ± 0.17	1.723 ± 0.012
323.15 K	786.32 ± 0.17	1.351 ± 0.009
333.15 K	778.16 ± 0.17	1.071 ± 0.008

CCCCO [butan-1-ol]
[2]
Conditions	mass density [kg/m3]	viscosity [mPa·s]
293.15 K	809.69 ± 0.17	2.908 ± 0.019
303.15 K	802.04 ± 0.17	2.225 ± 0.015
313.15 K	794.27 ± 0.17	1.723 ± 0.012
323.15 K	786.32 ± 0.17	1.351 ± 0.009
333.15 K	778.16 ± 0.17	1.071 ± 0.008
